{"source": "patent US20230085307A1", "about": "“PYRIDAZINONE COMPOUND AND HERBICIDE” (NISSAN CHEMICAL CORPORATION, priority 2019, published 2023)", "key": {"[1]": {"tested_on": "rice flat sedge", "experiment": "Test Example 3: herbicidal effect by foliage application, Wagner pot (Table 18, symbol E)", "format": "in vivo, rice flat sedge (Cyperus iria)", "settings": "320 g/ha", "procedure,_shortened": "(§1)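 Plants were sown in alluvial soil held under 0.1–0.5 cm standing water and grown 14 days in a greenhouse at 25–30 °C. An emulsifiable formulation, water-diluted to the set dose, was then sprayed onto the foliage, and effects were scored three weeks later using previously defined criteria.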"}, "[2]": {"tested_on": "persian speedwell", "experiment": "Test Example 4: herbicidal effect by soil treatment (Table 19, symbol R)", "format": "in vivo, Persian speedwell (Veronica persica)", "settings": "amount of applied herbicide 320 g/ha", "procedure,_shortened": "(§2)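 Scoring uses the grading scale of an earlier test, three weeks post-application. Treatment consists of spraying a diluted emulsion formulation across the surface of sterilized diluvial soil in which seeds are buried near 1.5 cm deep; boxes are kept in a greenhouse between 25° C. and 30° C.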"}, "[3]": {"tested_on": "redroot pigweed", "experiment": "Test Example 4: herbicidal effect by soil treatment (Table 19, symbol N)", "format": "in vivo, redroot pigweed (Amaranthus retroflexus)", "settings": "amount of applied herbicide 320 g/ha", "procedure,_shortened": "as §2"}, "[4]": {"tested_on": "blackgrass", "experiment": "Test Example 5: herbicidal effect by foliage application, plastic box (Table 20, symbol J)", "format": "in vivo, blackgrass (Alopecurus myosuroides)", "settings": "320 g/ha, foliage application after 14-day growth, evaluated three weeks after application", "procedure,_shortened": "(§3)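 Post-emergence foliar test in sterilized diluvial soil. Compound applied as water-diluted emulsion at a predetermined rate to 14-day-old plants; evaluation at three weeks.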"}, "[5]": {"tested_on": "velvetleaf", "experiment": "Test Example 4: herbicidal effect by soil treatment (Table 19, symbol M)", "format": "in vivo, velvetleaf (Abutilon theophrasti)", "settings": "amount of applied herbicide 320 g/ha", "procedure,_shortened": "as §2"}, "[6]": {"tested_on": "green foxtail", "experiment": "Test Example 5: herbicidal effect by foliage application, plastic box (Table 20, symbol G)", "format": "in vivo, green foxtail (Setaria viridis)", "settings": "320 g/ha, foliage application after 14-day growth, evaluated three weeks after application", "procedure,_shortened": "as §3"}, "[7]": {"tested_on": "Italian ryegrass", "experiment": "Test Example 4: herbicidal effect by soil treatment (Table 19, symbol K)", "format": "in vivo, Italian ryegrass (Lolium multiflorum)", "settings": "amount of applied herbicide 320 g/ha", "procedure,_shortened": "as §2"}, "[8]": {"tested_on": "barnyard grass", "experiment": "Test Example 3: herbicidal effect by foliage application, Wagner pot (Table 18, symbol H)", "format": "in vivo, barnyard grass (Echinochloa crus-galli)", "settings": "320 g/ha", "procedure,_shortened": "as §1"}, "[9]": {"tested_on": "windgrass", "experiment": "Test Example 4: herbicidal effect by soil treatment (Table 19, symbol L)", "format": "in vivo, windgrass (Apera spica-venti)", "settings": "amount of applied herbicide 320 g/ha", "procedure,_shortened": "as §2"}, "[10]": {"tested_on": "chickweed", "experiment": "Test Example 5: herbicidal effect by foliage application, plastic box (Table 20, symbol P)", "format": "in vivo, common chickweed (Stellaria media)", "settings": "320 g/ha, foliage application after 14-day growth, evaluated three weeks after application", "procedure,_shortened": "as §3"}, "[11]": {"tested_on": "lambsquarters", "experiment": "Test Example 5: herbicidal effect by foliage application, plastic box (Table 20, symbol O)", "format": "in vivo, lambsquarters (Chenopodium album)", "settings": "320 g/ha, foliage application after 14-day growth, evaluated three weeks after application", "procedure,_shortened": "as §3"}, "[12]": {"tested_on": "Italian ryegrass", "experiment": "Test Example 5: herbicidal effect by foliage application, plastic box (Table 20, symbol K)", "format": "in vivo, Italian ryegrass (Lolium multiflorum)", "settings": "320 g/ha, foliage application after 14-day growth, evaluated three weeks after application", "procedure,_shortened": "as §3"}, "[13]": {"tested_on": "Chinese sprangletop", "experiment": "Test Example 3: herbicidal effect by foliage application, Wagner pot (Table 18, symbol D)", "format": "in vivo, chinese sprangletop (Leptochloa chinensis)", "settings": "320 g/ha", "procedure,_shortened": "as §1"}, "[14]": {"tested_on": "oval-leafed pondweed", "experiment": "Test Example 2: herbicidal activity, application during weed generation under submerged conditions (Table 17, symbol C)", "format": "in vivo, oval-leafed pondweed (Monochoria vaginalis)", "settings": "AAH 320 g/ha; application during weed generation, submerged conditions", "procedure,_shortened": "(§4)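 Effect on each weed is rated three weeks post-treatment, using the same scoring criteria as the preceding test. Plants grow from mixed-sown seed in flooded alluvial soil (4 cm water) at 25° C. to 30° C., and are treated at one to two leaves with diluted emulsion dropped onto the water.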"}, "[15]": {"tested_on": "blackgrass", "experiment": "Test Example 4: herbicidal effect by soil treatment (Table 19, symbol J)", "format": "in vivo, blackgrass (Alopecurus myosuroides)", "settings": "amount of applied herbicide 320 g/ha", "procedure,_shortened": "as §2"}, "[16]": {"tested_on": "redroot pigweed", "experiment": "Test Example 5: herbicidal effect by foliage application, plastic box (Table 20, symbol N)", "format": "in vivo, redroot pigweed (Amaranthus retroflexus)", "settings": "320 g/ha, foliage application after 14-day growth, evaluated three weeks after application", "procedure,_shortened": "as §3"}, "[17]": {"tested_on": "chickweed", "experiment": "Test Example 4: herbicidal effect by soil treatment (Table 19, symbol P)", "format": "in vivo, common chickweed (Stellaria media)", "settings": "amount of applied herbicide 320 g/ha", "procedure,_shortened": "as §2"}, "[18]": {"tested_on": "windgrass", "experiment": "Test Example 5: herbicidal effect by foliage application, plastic box (Table 20, symbol L)", "format": "in vivo, windgrass (Apera spica-venti)", "settings": "320 g/ha, foliage application after 14-day growth, evaluated three weeks after application", "procedure,_shortened": "as §3"}, "[19]": {"tested_on": "Japanese bulrush", "experiment": "Test Example 2: herbicidal activity, application during weed generation under submerged conditions (Table 17, symbol B)", "format": "in vivo, Japanese bulrush (Schoenoplectus juncoides)", "settings": "AAH 320 g/ha; application during weed generation, submerged conditions", "procedure,_shortened": "as §4"}, "[20]": {"tested_on": "wild oat", "experiment": "Test Example 4: herbicidal effect by soil treatment (Table 19, symbol I)", "format": "in vivo, wild oat (Avena fatua)", "settings": "amount of applied herbicide 320 g/ha", "procedure,_shortened": "as §2"}, "[21]": {"tested_on": "barnyard grass", "experiment": "Test Example 4: herbicidal effect by soil treatment (Table 19, symbol H)", "format": "in vivo, barnyard grass (Echinochloa crus-galli)", "settings": "amount of applied herbicide 320 g/ha", "procedure,_shortened": "as §2"}, "[22]": {"tested_on": "barnyard grass", "experiment": "Test Example 5: herbicidal effect by foliage application, plastic box (Table 20, symbol H)", "format": "in vivo, barnyard grass (Echinochloa crus-galli)", "settings": "320 g/ha, foliage application after 14-day growth, evaluated three weeks after application", "procedure,_shortened": "as §3"}, "[23]": {"tested_on": "velvetleaf", "experiment": "Test Example 5: herbicidal effect by foliage application, plastic box (Table 20, symbol M)", "format": "in vivo, velvetleaf (Abutilon theophrasti)", "settings": "320 g/ha, foliage application after 14-day growth, evaluated three weeks after application", "procedure,_shortened": "as §3"}, "[24]": {"tested_on": "late watergrass", "experiment": "Test Example 2: herbicidal activity, application during weed generation under submerged conditions (Table 17, symbol A)", "format": "in vivo, late watergrass (Echinochloa oryzicola)", "settings": "AAH 320 g/ha; application during weed generation, submerged conditions", "procedure,_shortened": "as §4"}, "[25]": {"tested_on": "southern crabgrass", "experiment": "Test Example 4: herbicidal effect by soil treatment (Table 19, symbol F)", "format": "in vivo, southern crabgrass (Digitaria ciliaris)", "settings": "amount of applied herbicide 320 g/ha", "procedure,_shortened": "as §2"}, "[26]": {"tested_on": "green foxtail", "experiment": "Test Example 4: herbicidal effect by soil treatment (Table 19, symbol G)", "format": "in vivo, green foxtail (Setaria viridis)", "settings": "amount of applied herbicide 320 g/ha", "procedure,_shortened": "as §2"}, "[27]": {"tested_on": "wild oat", "experiment": "Test Example 5: herbicidal effect by foliage application, plastic box (Table 20, symbol I)", "format": "in vivo, wild oat (Avena fatua)", "settings": "320 g/ha, foliage application after 14-day growth, evaluated three weeks after application", "procedure,_shortened": "as §3"}, "[28]": {"tested_on": "persian speedwell", "experiment": "Test Example 5: herbicidal effect by foliage application, plastic box (Table 20, symbol R)", "format": "in vivo, Persian speedwell (Veronica persica)", "settings": "320 g/ha, foliage application after 14-day growth, evaluated three weeks after application", "procedure,_shortened": "as §3"}, "[29]": {"tested_on": "southern crabgrass", "experiment": "Test Example 5: herbicidal effect by foliage application, plastic box (Table 20, symbol F)", "format": "in vivo, southern crabgrass (Digitaria ciliaris)", "settings": "320 g/ha, foliage application after 14-day growth, evaluated three weeks after application", "procedure,_shortened": "as §3"}, "[30]": {"tested_on": "lambsquarters", "experiment": "Test Example 4: herbicidal effect by soil treatment (Table 19, symbol O)", "format": "in vivo, lambsquarters (Chenopodium album)", "settings": "amount of applied herbicide 320 g/ha", "procedure,_shortened": "as §2"}}}
{"smiles": "CCCC(=O)Oc1c(C)nn(C)c(=O)c1-c1c(-c2ccc(F)cc2)sc2c(Cl)cccc12", "note": "[4-016]", "values": [{"measurement": "herbicidal effect on rice flat sedge (E)", "setting": "[1]", "result": "4 (Herbicidal rate of 70% or more and less than 90%)"}, {"measurement": "Herbicidal effect by soil treatment, R: persian speedwell", "setting": "[2]", "result": "0 (Herbicidal rate of 5% or less (almost no effect))"}, {"measurement": "Herbicidal effect by soil treatment, N: redroot pigweed", "setting": "[3]", "result": "3 (Herbicidal rate of 40% or more and less than 70%)"}, {"measurement": "herbicidal effect on J: blackgrass (evaluation grade 0-5)", "setting": "[4]", "result": "0 (Herbicidal rate of 5% or less (almost no effect))"}, {"measurement": "Herbicidal effect by soil treatment, M: velvetleaf", "setting": "[5]", "result": "0 (Herbicidal rate of 5% or less (almost no effect))"}, {"measurement": "herbicidal effect on G: green foxtail (evaluation grade 0-5)", "setting": "[6]", "result": "0 (Herbicidal rate of 5% or less (almost no effect))"}, {"measurement": "Herbicidal effect by soil treatment, K: Italian ryegrass", "setting": "[7]", "result": "0 (Herbicidal rate of 5% or less (almost no effect))"}, {"measurement": "herbicidal effect on barnyard grass (H)", "setting": "[8]", "result": "3 (Herbicidal rate of 40% or more and less than 70%)"}, {"measurement": "Herbicidal effect by soil treatment, L: windgrass", "setting": "[9]", "result": "0 (Herbicidal rate of 5% or less (almost no effect))"}, {"measurement": "herbicidal effect on P: chickweed (evaluation grade 0-5)", "setting": "[10]", "result": "5 (Herbicidal rate of 90% or more (almost completely withered))"}, {"measurement": "herbicidal effect on O: lambsquarters (evaluation grade 0-5)", "setting": "[11]", "result": "1 (Herbicidal rate of 5% or more and less than 20%)"}, {"measurement": "herbicidal effect on K: Italian ryegrass (evaluation grade 0-5)", "setting": "[12]", "result": "0 (Herbicidal rate of 5% or less (almost no effect))"}, {"measurement": "herbicidal effect on Chinese sprangletop (D)", "setting": "[13]", "result": "5 (Herbicidal rate of 90% or more (almost completely withered))"}, {"measurement": "herbicidal effect rating, C: oval-leafed pondweed", "setting": "[14]", "result": "0 (Herbicidal rate of 5% or less (almost no effect))"}, {"measurement": "Herbicidal effect by soil treatment, J: blackgrass", "setting": "[15]", "result": "0 (Herbicidal rate of 5% or less (almost no effect))"}, {"measurement": "herbicidal effect on N: redroot pigweed (evaluation grade 0-5)", "setting": "[16]", "result": "3 (Herbicidal rate of 40% or more and less than 70%)"}, {"measurement": "Herbicidal effect by soil treatment, P: chickweed", "setting": "[17]", "result": "1 (Herbicidal rate of 5% or more and less than 20%)"}, {"measurement": "herbicidal effect on L: windgrass (evaluation grade 0-5)", "setting": "[18]", "result": "5 (Herbicidal rate of 90% or more (almost completely withered))"}, {"measurement": "herbicidal effect rating, B: Japanese bulrush", "setting": "[19]", "result": "0 (Herbicidal rate of 5% or less (almost no effect))"}, {"measurement": "Herbicidal effect by soil treatment, I: wild oat", "setting": "[20]", "result": "0 (Herbicidal rate of 5% or less (almost no effect))"}, {"measurement": "Herbicidal effect by soil treatment, H: barnyard grass", "setting": "[21]", "result": "1 (Herbicidal rate of 5% or more and less than 20%)"}, {"measurement": "herbicidal effect on H: barnyard grass (evaluation grade 0-5)", "setting": "[22]", "result": "0 (Herbicidal rate of 5% or less (almost no effect))"}, {"measurement": "herbicidal effect on M: velvetleaf (evaluation grade 0-5)", "setting": "[23]", "result": "5 (Herbicidal rate of 90% or more (almost completely withered))"}, {"measurement": "herbicidal effect rating, A: late watergrass", "setting": "[24]", "result": "2 (Herbicidal rate of 20% or more and less than 40%)"}, {"measurement": "Herbicidal effect by soil treatment, F: southern crabgrass", "setting": "[25]", "result": "2 (Herbicidal rate of 20% or more and less than 40%)"}, {"measurement": "Herbicidal effect by soil treatment, G: green foxtail", "setting": "[26]", "result": "3 (Herbicidal rate of 40% or more and less than 70%)"}, {"measurement": "herbicidal effect on I: wild oat (evaluation grade 0-5)", "setting": "[27]", "result": "3 (Herbicidal rate of 40% or more and less than 70%)"}, {"measurement": "herbicidal effect on R: persian speedwell (evaluation grade 0-5)", "setting": "[28]", "result": "3 (Herbicidal rate of 40% or more and less than 70%)"}, {"measurement": "herbicidal effect on F: southern crabgrass (evaluation grade 0-5)", "setting": "[29]", "result": "0 (Herbicidal rate of 5% or less (almost no effect))"}, {"measurement": "Herbicidal effect by soil treatment, O: lambsquarters", "setting": "[30]", "result": "1 (Herbicidal rate of 5% or more and less than 20%)"}]}
